Measurements reported in patent US20090232942A1, “Yeast Preparations With Improved Antioxidant Properties and Uses Thereof” (priority 2005, published 2009).
Converted amounts (≈) assume the structure as drawn.

Tests used:
Assay type in all cases: biochemical
LDL/VLDL [1] = experiment: LAG-TIME method: Cu2+-induced oxidation of LDL/VLDL, absorbance at 234 nm, unbound samples; settings: 1 μM of sample; for Lag Time: 70 μg/ml LDL/VLDL, 25 μM Cu2+, 234 nm; for Increase of Lag Time 1 (%): relative to control (LDL alone)
Description: It makes it possible to measure the time required for the added antioxidants to oxidize. […] The effect of the antioxidant present is all the stronger when the lag time is long (in seconds). The kinetic analysis was carried out at 234 nm. The various samples were brought to the same concentration of 1 μm.
The mixture was subjected to Vortex stirring for 5 minutes, then to centrifugation for 10 minutes. […] of supernatant was recovered. This product was ready to use. (sample No. 7 was ground into a fine powder before being mixed with water).
The procedure described in the publication J. Agric. […] This experiment thus made it possible to measure the capacity of the antioxidant tested to inhibit oxidation.
The LDL/VLDL preparation and the various samples were diluted in PBS in order to obtain the desired concentration (70 μg/ml of LDL/VLDL). The control batch contained only the 70 μg/ml LDL/VLDL preparation and PBS. The absorbance of the PBS, the control batch and the other samples was carried out at a wavelength of 234 nm over 10 min on a Genesys 5 machine. Next, 25 μM of Cu^2+ (final concentration in the solution) were added and mixed and the absorbance measurement was carried out every 5 minutes for 6 to 8 hours.

LDL/VLDL [2] = experiment: Bound LAG TIME: samples incubated 2 hours with LDL/VLDL before Cu2+-induced oxidation; settings: 1 μM of sample; for Lag Time: bound (2 hours incubation with LDL/VLDL at ambient temperature), 25 μM Cu2+; for Increase of Lag Time 1 (%) / Increase of Lag Time 2 (%): bound; for Increase of Lag Time 1 (%): relative to control (LDL alone); for Increase of Lag Time 2 (%): relative to the unbound sample
Description: The LDLs and the various antioxidants were inoculated so that bonds were created. This phenomenon is supposed to represent what happens in the plasma when an antioxidant having the ability to bind is absorbed.
The various samples and the LDL/VLDL preparation were diluted to 1 μM and 70 μg/ml respectively in PBS, then incubated at ambient temperature for 2 hours. Next, 25 μM of Cu^2+ (final concentration in the solution) were added and mixed and the absorbance measurement was carried out every 5 minutes for 6 to 8 hours. The absorbance of the samples was measured at a wavelength of 234 nm over 10 min on a Genesys 5 machine. The tocopherol was used as a positive control given that it is known for binding to the LDL which is generally a tocopherol carrier in plasma.

[3] = Reduction of the DPPH radical, inhibition of absorbance at 523 nm (UV-visible); settings: for IC50 Mean: n = 3
Text: DPPH. has an intense violet color and this compound remains stable, in the solid form, for years. An antioxidant, proton donor, is capable of reducing this radical (DPPH.→DPPH2), which leads to a decrease in its absorbance. The antioxidant capacity of the compounds is thus determined by evaluating the percentage of inhibition of the absorbance of DPPH. at 523 nm. […] The DPPH. sold by Aldrich and the vitamin C sold by Merck were used. In these tests, the selenium and glutathione concentrations were such that the solution of E2 contained as much selenium and glutathione as that of E1. The method used made it possible to evaluate the overall antioxidant power of the mixture and to compare it to that of reference substances under the same experimental conditions. The antioxidant activity was evaluated by measuring the capacity of the extract to trap the […].

IC50 Mean ([3]; Time 10 min) | IC50 Mean ([3]; Time 20 min) | IC50 Mean ([3]; Time 30 min) | IC50 times higher than that for vitamin C ([3]; 30 min value) | Compound | inhibition of LDL oxidation in comparison to the control (in words) (LDL/VLDL [1]) | Lag Time (LDL/VLDL [1]) | Increase of Lag Time 1 (%) (LDL/VLDL [1]) | Lag Time (LDL/VLDL [2]) | Increase of Lag Time 1 (%) (LDL/VLDL [2]) | Increase of Lag Time 2 (%) (LDL/VLDL [2])
– | – | – | – | C[Se]CC[C@H](N)C(=O)O [selenomethionine] | did not show signs of inhibition | 2805 s | −8% | 6267 s | 106% | 123%
5.24 mg/L (≈ 29.8 µM) | 5.20 mg/L (≈ 29.5 µM) | 5.16 mg/L (≈ 29.3 µM) | – | O=C1O[C@H]([C@@H](O)CO)C(O)=C1O [Vitamin C, vitamin C] | – | – | – | – | – | –
– | – | – | – | tocopherol | high levels of inhibition | 7285 s | 140% | 20940 s | 590% | 187%
292.97 mg/L (≈ 953 µM) | 233.84 mg/L (≈ 761 µM) | 202.13 mg/L (≈ 658 µM) | 40 times | N[C@@H](CCC(=O)N[C@@H](CS)C(=O)NCC(=O)O)C(=O)O [Glutathione] | – | – | – | – | – | –
